This note sets out measurements from patent US20250051338A1, “TYK2 DEGRADERS AND USES THEREOF” (Kymera Therapeutics, Inc., priority 2021, published 2025).

Usually DC50 stands for the concentration giving 50% degradation.

Common to all, as to format: cell-based
Assay [1] concerns the target T1, TYK2 (Homo sapiens, UniProt P29597). As to the kind of experiment: TYK2 degradation MSD assay in human PBMC cells. The arrangement: endogenous in cells; host or cells: human PBMC. The conditions noted are these: 4 to 24 hours incubation, read-out: TYK2 MSD DC50 rating in human PBMC. In a few lines:
(§1)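 Cells (0.4 million per well) were treated with a 9-point, 1:3 compound series from a top concentration of 1 to 10 μM for 4 to 24 hours at 37° C, then lysed in RIPA with protease/phosphatase inhibitors. Remaining TYK2 was quantified by sandwich MSD immunoassay; DC50 came from four-parameter nonlinear fits.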

The target of assay [2] is T1, TYK2. As to the kind of experiment: TYK2 degradation MSD assay in EBV-B cells. More on the design: endogenous in cells; host or cells: EBV-B cells. Conditions: 4 to 24 hours incubation, read-out: TYK2 MSD DC50 rating in EBV-B. The method in brief:
as §1

For assay [3], the target named is T1, TYK2. Briefly: TYK2 degradation MSD assay in OCI-LY10 cells. The arrangement: endogenous in cells; host or cells: EBV-B cells. The conditions noted are these: 4 to 24 hours incubation, read-out: TYK2 MSD DC50 rating in OCI-LY10. In a few lines:
as §1

T1 sequence (P29597 whole entry): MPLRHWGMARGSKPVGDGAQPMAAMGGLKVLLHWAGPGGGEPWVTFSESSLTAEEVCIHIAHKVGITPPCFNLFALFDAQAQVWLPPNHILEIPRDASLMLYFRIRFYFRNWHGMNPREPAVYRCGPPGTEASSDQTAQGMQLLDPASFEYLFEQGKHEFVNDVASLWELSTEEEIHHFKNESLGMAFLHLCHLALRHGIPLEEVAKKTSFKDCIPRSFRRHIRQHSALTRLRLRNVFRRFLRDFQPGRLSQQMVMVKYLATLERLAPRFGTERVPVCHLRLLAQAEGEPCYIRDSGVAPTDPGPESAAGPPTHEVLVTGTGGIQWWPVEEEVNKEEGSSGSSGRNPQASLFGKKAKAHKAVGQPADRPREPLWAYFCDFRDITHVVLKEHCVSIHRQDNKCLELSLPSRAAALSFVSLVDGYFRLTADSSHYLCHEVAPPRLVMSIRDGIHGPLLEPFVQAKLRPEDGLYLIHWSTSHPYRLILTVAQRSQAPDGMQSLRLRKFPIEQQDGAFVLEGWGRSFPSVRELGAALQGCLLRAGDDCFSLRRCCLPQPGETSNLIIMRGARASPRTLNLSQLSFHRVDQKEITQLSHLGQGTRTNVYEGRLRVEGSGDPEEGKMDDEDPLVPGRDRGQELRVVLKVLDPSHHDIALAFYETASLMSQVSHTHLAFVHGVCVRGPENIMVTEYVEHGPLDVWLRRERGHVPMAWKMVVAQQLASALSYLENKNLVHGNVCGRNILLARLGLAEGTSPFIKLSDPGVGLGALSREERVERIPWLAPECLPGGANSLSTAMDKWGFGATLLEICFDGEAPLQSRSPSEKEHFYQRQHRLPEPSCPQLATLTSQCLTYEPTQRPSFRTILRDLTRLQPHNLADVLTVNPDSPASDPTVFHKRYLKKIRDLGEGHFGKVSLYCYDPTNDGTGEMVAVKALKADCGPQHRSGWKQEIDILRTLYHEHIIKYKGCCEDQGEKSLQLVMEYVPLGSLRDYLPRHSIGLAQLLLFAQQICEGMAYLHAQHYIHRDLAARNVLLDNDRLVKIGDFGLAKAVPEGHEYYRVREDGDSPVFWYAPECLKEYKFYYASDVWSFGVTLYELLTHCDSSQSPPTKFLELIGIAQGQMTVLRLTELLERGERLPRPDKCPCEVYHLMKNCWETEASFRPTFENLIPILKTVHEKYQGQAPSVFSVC

Turning to `CNc1cc(Nc2cccc(N3CCC(CN4CC5(CCN(c6cccc7c6n(C)c(=O)n7C6CCC(=O)NC6=O)CC5)C4)CC3)c2)nn2c(C(=O)N[C@@H]3C[C@@H]3F)cnc12` (stereo partly drawn) [Example K520], the figures for the DC50 at TYK2 [1], on TYK2 [2] and at TYK2 [3] were greater than 100 nM, greater than 100 nM and less than 1 nM, respectively.

For `CNc1cc(Nc2cccc(-c3ccc(CN4CC5(C4)CN(c4ccc(-c6ccc7c(c6)n(C)c(=O)n7C6CCC(=O)NC6=O)cc4)C5)cn3)c2)nn2c(C(=O)N[C@@H]3C[C@@H]3F)cnc12` (stereo partly drawn) [Example K522], the 50% degradation concentration (DC50) on TYK2 [1] was greater than 100 nM; at TYK2 [2], greater than 100 nM; on TYK2 [3], less than 1 nM.

Turning to `CNc1cc(Nc2cccc(-c3ccc(CN4CCN(c5ccc6c(c5)n(C)c(=O)n6C5CCC(=O)NC5=O)CC4)cn3)c2)nn2c(C(=O)N[C@@H]3C[C@@H]3F)cnc12` (stereo partly drawn) [Example K523], the 50% degradation concentration (DC50) on TYK2 [1] was greater than 100 nM; on TYK2 [2], greater than 100 nM; on TYK2 [3], 1 to 10 nM.

Take `Cn1c(=O)n(C2CCC(=O)NC2=O)c2ccc(N3CCN(C4CN(C5CCN(Cc6ccc(-c7cccc(Nc8ccc9ncc(C(=O)NC%10CC%10)n9n8)c7)nc6)CC5)C4)CC3)cc21` (stereo not drawn) [Example K524]: the DC50 at TYK2 [1], at TYK2 [2] and at TYK2 [3] was greater than 100 nM throughout.

For the compound `CNc1cc(N2CCc3c(-c4ccc(CN5CC(C6CCN(C(=O)c7ccc(Cl)c(N8CCC(=O)NC8=O)c7)CC6)C5)cn4)cccc32)nn2c(C(=O)N[C@@H]3C[C@@H]3F)cnc12` [Example K525], the half-maximal degradation concentration (DC50) on TYK2 [1] is greater than 100 nM; on TYK2 [2] it was greater than 100 nM; on TYK2 [3], less than 1 nM.

On to `CCNC(=O)c1cnc2c(NC)cc(Nc3cccc(-c4ccc(CN5CCN(c6ccc(-c7ccc8c(c7)n(C)c(=O)n8C7CCC(=O)NC7=O)cc6)CC5)cn4)c3OC)nn12` (stereo not drawn) [Example K526], for which the half-maximal degradation concentration (DC50) at TYK2 [1] was greater than 100 nM; at TYK2 [2], greater than 100 nM; on TYK2 [3], 1 to 10 nM.

As for `CNC(=O)c1cnc2c(NC)cc(Nc3cccc(-c4ccc(CN5CCN(c6ccc(-c7ccc8c(c7)n(C)c(=O)n8C7CCC(=O)NC7=O)cc6)CC5)cn4)c3OC)nn12` (stereo not drawn) [Example K527], the DC50 is greater than 100 nM on TYK2 [1], greater than 100 nM at TYK2 [2] and 1 to 10 nM at TYK2 [3].

With `CNc1cc(Nc2cccc(-c3ccc(CN4CCN(c5ccc(-c6ccc7c(c6)n(C)c(=O)n7C6CCC(=O)NC6=O)cc5)CC4)cn3)c2OC)nn2c(C(=O)NC(C)C)cnc12` (stereo not drawn) [Example K528], the DC50 was greater than 100 nM at TYK2 [1], greater than 100 nM on TYK2 [2] and 1 to 10 nM at TYK2 [3].

Consider `CNc1cc(-c2ccc(-c3ccc(CN4CCN(c5ccc(-c6ccc7c(c6)n(C)c(=O)n7C6CCC(=O)NC6=O)cc5)CC4)cn3)cc2)nn2c(C(=O)N[C@@H]3C[C@@H]3F)cnc12` (stereo partly drawn) [Example K529], for which the results for the DC50 on TYK2 [1], at TYK2 [2] and on TYK2 [3] were greater than 100 nM, greater than 100 nM and 1 to 10 nM, respectively.

Take `CNc1cc(-c2ccc(C3CCN(CC4CCN(c5ccc(-c6ccc7c(c6)n(C)c(=O)n7C6CCC(=O)NC6=O)cc5)CC4)CC3)cc2)nn2c(C(=O)N[C@@H]3C[C@@H]3F)cnc12` (stereo partly drawn) [Example K530]: the DC50 on TYK2 [1], at TYK2 [2] and on TYK2 [3] was greater than 100 nM each time.

`CNc1cc(Nc2cccnc2OC2CCN(CCN3CCN(c4ccc5c(c4)n(C)c(=O)n5C4CCC(=O)NC4=O)CC3)CC2)nn2c(C(=O)N[C@@H]3C[C@@H]3F)cnc12` (stereo partly drawn) [Example K531]: the values for the DC50 at TYK2 [1], at TYK2 [2] and at TYK2 [3] were greater than 100 nM, greater than 100 nM and 1 to 10 nM, respectively.

On to `CNc1cc(-c2cn(C)c3c(-c4ccc(CN5CCN(c6ccc(-c7ccc8c(c7)n(C)c(=O)n8C7CCC(=O)NC7=O)cc6)CC5)cc4)cccc23)nn2c(C(=O)N[C@@H]3C[C@@H]3F)cnc12` (stereo partly drawn) [Example K532], for which the half-maximal degradation concentration (DC50) at TYK2 [1], on TYK2 [2] and at TYK2 [3] was greater than 100 nM in each case.

Turning to `CNc1cc(Nc2cccc(-c3ccc(CN4CCN(c5ccc(-c6ccc7c(c6)n(C)c(=O)n7C6CCC(=O)NC6=O)cc5)CC4)cn3)c2)nn2c(-c3cn(C(C)C)nn3)cnc12` (stereo not drawn) [Example K534], the DC50 at TYK2 [1] was greater than 100 nM; on TYK2 [2], greater than 100 nM; at TYK2 [3] it was 1 to 10 nM.

`CCc1nn(-c2cccc(F)c2OC)c2cc(Nc3ccc(CN(C)C4CCN(c5cccc6c5n(C)c(=O)n6C5CCC(=O)NC5=O)CC4)cn3)ncc12` (stereo not drawn) [Example K537]: the half-maximal degradation concentration (DC50) at TYK2 [1], at TYK2 [2] and at TYK2 [3] was greater than 100 nM each time.

On to `CNc1cc(Nc2cccc(-c3ccc(CN4CCN(c5ccc(-c6ccc7c(c6)n(C)c(=O)n7C6CCC(=O)NC6=O)cc5)CC4)cn3)c2OC)nn2c(C(=O)NC3CC3C)cnc12` (stereo not drawn) [Example K542], for which the DC50 on TYK2 [1] is greater than 100 nM; at TYK2 [2], greater than 100 nM; at TYK2 [3], 1 to 10 nM.

As for `CNc1cc(Oc2ccn(C3CCN(CC4CCN(c5ccc(-c6ccc7c(c6)n(C)c(=O)n7C6CCC(=O)NC6=O)cc5)CC4)CC3)n2)nn2c(C(=O)N[C@@H]3C[C@@H]3F)cnc12` (stereo partly drawn) [Example K549], the DC50 on TYK2 [1], on TYK2 [2] and at TYK2 [3] was greater than 100 nM throughout.

With `CNc1cc(-c2ccc(C3CCN(CC4CCN(c5ccc(-c6ccc7c(c6)n(C)c(=O)n7C6CCC(=O)NC6=O)cc5)CC4)CC3)cc2)c2n3c(cnc13)C(=O)N(C1CC1)C2` (stereo not drawn) [Example K550], the DC50 on TYK2 [1], on TYK2 [2] and on TYK2 [3] was greater than 100 nM each time.

As for `CNc1cc(N2CCc3c(N4CCC(CN5CCN(c6ccc(-c7ccc8c(c7)n(C)c(=O)n8C7CCC(=O)NC7=O)cc6)CC5)CC4)cccc32)nn2c(C(=O)N[C@@H]3C[C@@H]3F)cnc12` (stereo partly drawn) [Example K551], the DC50 is greater than 100 nM on TYK2 [1], 1 to 10 nM at TYK2 [2] and greater than 100 nM on TYK2 [3].

Turning to `O=C1CCN(c2cc(C(=O)N3CCC4(CC3)CN(Cc3ccc(-c5cccc6c5CCN6c5ccc6ncc(C(=O)NC7CC7)n6n5)nc3)C4)ccc2Cl)C(=O)N1` [Example K554], the DC50 at TYK2 [1], on TYK2 [2] and at TYK2 [3] was greater than 100 nM in each case.

As to `Cn1c(=O)n(C2CCC(=O)NC2=O)c2ccc(-c3ccc(N4CCN(Cc5ccc(-c6cccc(Nc7nn8c(C(=O)N[C@@H]9C[C@@H]9F)cnc8c8c7OCCN8)c6)nc5)CC4)cc3)cc21` (stereo partly drawn) [Example K557], the half-maximal degradation concentration (DC50) at TYK2 [1] is greater than 100 nM; at TYK2 [2] it was greater than 100 nM; on TYK2 [3], less than 1 nM.

Turning to `CC#Cc1nn(-c2cccc(F)c2OC)c2cc(Nc3ccc(CN(C)C4CCN(c5cccc6c5n(C)c(=O)n6C5CCC(=O)NC5=O)CC4)cn3)ncc12` (stereo not drawn) [Example K558], the DC50 at TYK2 [1], at TYK2 [2] and at TYK2 [3] was greater than 100 nM each time.

In the case of `CNc1cc(N2CCc3c(-c4ccc(CN5CCC(N6CCN(C(=O)c7ccc(Cl)c(N8CCC(=O)NC8=O)c7)CC6)CC5)cn4)cccc32)nn2c(C(=O)N[C@@H]3C[C@@H]3F)cnc12` [Example K559], the results for the DC50 on TYK2 [1], at TYK2 [2] and on TYK2 [3] were greater than 100 nM, greater than 100 nM and 1 to 10 nM, respectively.

Regarding `CNc1cc(Nc2cccn(-c3ccc(C(=O)NCCCCc4cncc(N5CCC[C@H](C(=O)Nc6ccc(=O)n(CC(=O)O)c6)C5)c4)cn3)c2=O)nn2c(C(=O)N[C@@H]3C[C@@H]3F)cnc12` [Example K561], the DC50 on TYK2 [1], at TYK2 [2] and at TYK2 [3] was greater than 100 nM each time.

As for `CNc1cc(Nc2cccc(-c3ccc(CN4CCN(c5ccc(-c6ccc7c(c6)n(C)c(=O)n7C6CCC(=O)NC6=O)cc5)CC4)cn3)c2F)nn2c(C(=O)N[C@@H]3C[C@@H]3F)cnc12` (stereo partly drawn) [Example K563], the 50% degradation concentration (DC50) at TYK2 [1] is greater than 100 nM; on TYK2 [2], greater than 100 nM; at TYK2 [3], less than 1 nM.

Regarding `CNc1cc(Nc2cccc(CN3CCN(c4ccc(-c5ccc6c(c5)n(C)c(=O)n6C5CCC(=O)NC5=O)cc4)CC3)c2Cl)nn2c(C(=O)N[C@@H]3C[C@@H]3F)cnc12` (stereo partly drawn) [Example K564], the figures for the DC50 on TYK2 [1], at TYK2 [2] and at TYK2 [3] were greater than 100 nM, greater than 100 nM and less than 1 nM, respectively.

In the case of `CNc1cc(-c2ccc(CN3CCN(c4ccc(-c5ccc6c(c5)n(C)c(=O)n6C5CCC(=O)NC5=O)cc4)CC3)cc2)nn2c(C(=O)N[C@@H]3C[C@@H]3F)cnc12` (stereo partly drawn) [Example K565], the 50% degradation concentration (DC50) on TYK2 [1], on TYK2 [2] and at TYK2 [3] was greater than 100 nM each time.

With `CNc1cc(N2CCc3c(-c4ccc(CN5CCN([C@H]6CC[C@H](c7ccc(-c8ccc9c(c8)n(C)c(=O)n9C8CCC(=O)NC8=O)cc7)CC6)CC5)cn4)cccc32)nn2c(C(=O)N[C@@H]3CC3F)cnc12` (stereo partly drawn) [Example K566], the values for the half-maximal degradation concentration (DC50) at TYK2 [1], on TYK2 [2] and at TYK2 [3] were greater than 100 nM, greater than 100 nM and 1 to 10 nM, respectively.

As to `CNc1cc(Nc2cccc(-c3ccc(CN4CCN(C5CCC(c6ccc(-c7ccc8c(c7)n(C)c(=O)n8C7CCC(=O)NC7=O)cc6)CC5)CC4)cn3)c2OC)nn2c(C(=O)N[C@@H]3C[C@@H]3F)cnc12` (stereo partly drawn) [Example K567], the results for the half-maximal degradation concentration (DC50) at TYK2 [1], on TYK2 [2] and on TYK2 [3] were greater than 100 nM, greater than 100 nM and less than 1 nM, respectively.

With `CNc1cc(N2CCc3c(N4CCC(CC5CC6(CCN(C(=O)c7ccc(Cl)c(N8CCC(=O)NC8=O)c7)CC6)C5)CC4)cccc32)nn2c(C(=O)N[C@@H]3C[C@@H]3F)cnc12` [Example K568], the half-maximal degradation concentration (DC50) was greater than 100 nM at TYK2 [1], greater than 100 nM at TYK2 [2] and 1 to 10 nM on TYK2 [3].

For `CNc1cc(Nc2cccn(-c3ccc(C(=O)NCCCCCCCCc4cncc(N5CCC[C@H](C(=O)Nc6ccc(=O)n(CC(=O)O)c6)C5)c4)cn3)c2=O)nn2c(C(=O)N[C@@H]3C[C@@H]3F)cnc12` [Example K571], the DC50 on TYK2 [1], at TYK2 [2] and at TYK2 [3] was greater than 100 nM in each case.
